Measured values taken from patent publication US10538567B2, “Compounds as peptidic trigonal GLP1/glucagon/GIP receptor agonists” (priority 2016, dated 2020).
Numbered stars: 1 amine (or outer) side, 2 acyl side, 3 side chain; on linkers, the order of the positions; unused ones are H or OH. Square brackets hold non-standard residues; d marks the D form. Side chains are listed from the residue outwards. Peptide text beside a SMILES is read from it. * marks the point of attachment. γGlu = O=C(O)[C@H](CCC(=O)[*:2])N[*:1]; Palmitoyl = CCCCCCCCCCCCCCCC(=O)*; Aib = CC(C)(N)C(=O)O

Columns and labels:
[1] = Solubility assessment in solubility buffer system A; type: physicochemical; settings: acetate buffer pH 4.5 with m-cresol; acetate buffer pH 4.5, 2.7 mg/ml m-cresol, target 10 mg/ml
Method: Prior to the solubility measurement of a peptide batch, its purity was determined through UPLC/MS.
Therefore solutions from solid samples were prepared in a buffer system with a concentration of 10 mg/mL compound based on the previously determined % purity:
Solubility buffer system A) Acetate Buffer pH 4.5, 100 mM sodium acetate trihydrate, 2.7 mg/ml m-Cresol
UPLC-UV was performed after 1 hour of gentle agitation from the supernatant, which was obtained after 15 min of centrifugation at 2500 RCF (relative centrifugal acceleration).
The solubility was determined by the comparison of the UV peak area of 2 μL-injection of a buffered sample diluted 1:10 with a standard curve of a reference peptide with known concentration. The different UV extinction coefficients of sample and reference peptide were calculated based on the different amino acid sequences and considered in the concentration calculation.
Peptide samples were prepared in solubility buffer system A and solubility was assessed as described in Methods.

[2] = Dynamic light scattering, hydrodynamic radius as surrogate for DLS interaction parameter kD; type: physicochemical; settings: for Delta Rh [nm] = Rh5 − Rh1: DLS buffer system A pH 4.5; for Rh1 [nm] c = 1 mg/ml / Rh5 [nm] c = 5 mg/ml: hydrodynamic radius, DLS buffer system A pH 4.5, method C, 25° C.
From the text: A monochromatic and coherent light beam (laser) is used to illuminate the liquid sample. Dynamic Light Scattering (DLS) measures light scattered from particles (1 nm≤radius≤1 μm) that undergo Brownian motion. This motion is induced by collisions between the particles and solvent molecules that themselves are moving due to their thermal energy. The diffusional motion of the particles results in temporal fluctuations of the scattered light [Pecora, R. Dynamic Light Scattering: Applications of Photon Correlation Spectroscopy, Plenum Press, 1985].
The scattered light intensity fluctuations are recorded and transformed into an autocorrelation function. By fitting the autocorrelation curve to an exponential function, the diffusion coefficient D of the particles in solution can be derived. The diffusion coefficient is then used to calculate the hydrodynamic radius Rh (or apparent Stokes radius) through the Stokes-Einstein equation assuming spherical particles. This calculation is defined in ISO 13321 and ISO 22412 [International Standard ISO13321 Methods for Determination of Particle Size Distribution Part 8: Photon Correlation Spectroscopy, International Organisation for Standardisation (ISO) 1996; International Standard ISO22412 Particle Size Analysis—Dynamic Light Scattering, International Organisation for Standardisation (ISO) 2008].
For every peptide solution, the hydrodynamic radius Rh and the diffusion constant D (related via the Stokes-Einstein equation) were determined as an average over triplicates. Both parameters were determined at different peptide concentrations (e.g., Rh1 and D1: 1 mg/ml and Rh5 and D5: 5 mg/ml) in the same buffer system. The difference of these parameters between low and high peptide concentration is a surrogate for the DLS interaction parameter kD. Rh5<Rh1 or D5>D1 correspond to kD>0 and therefore to repulsive inter-particle interactions that result in improved physical (or colloidal) stability.
DLS buffer system A) 25 mM acetate buffer pH 4.5, 3 mg/mL L-Methionine, 2.7 mg/mL m-cresol, 18 mg/mL Glycerol 85%
DLS Method C: DLS measurements were performed on a DynaPro Plate Reader II (Wyatt Technology, Santa Barbara, Calif., US) and using one of the following black, low volume, and non-treated plates: polystyrene 384 assay plate with clear bottom (Corning, N.Y., US), polystyrene 96 assay plate with clear bottom (Corning, N.Y., US), cyclo olefin polymer (COP) 384 assay plate with clear bottom (Aurora, Mont., US), or polystyrene 384 assay plate with clear bottom (Greiner Bio-One, Germany). The data were processed with the Dynamics software provided by Wyatt Technology. Parameters of the particle size distribution were determined with non-negatively constrained least squares (NNLS) methods using DynaLS algorithms. Measurements were taken at 25° C. with an 830 nm laser light source at an angle of 158°.
The hydrodynamic radius Rh of peptide samples was determined at different peptide concentrations (1 mg/ml and 5 mg/ml) in DLS buffer system A using DLS method C as described in Methods as surrogate for the DLS interaction parameter kD.

human glucagon receptor = molecular target: T1, human glucagon receptor (Homo sapiens, UniProt P47871); assay: cAMP response (HTRF) of HEK-293 cells stably expressing human glucagon receptor; type: cell-based; settings: Table 8; read-out: EC50 hGlucagon R
T1 construct: expressed in transfected cells; host or cells: HEK-293
T1 sequence (P47871 26-477): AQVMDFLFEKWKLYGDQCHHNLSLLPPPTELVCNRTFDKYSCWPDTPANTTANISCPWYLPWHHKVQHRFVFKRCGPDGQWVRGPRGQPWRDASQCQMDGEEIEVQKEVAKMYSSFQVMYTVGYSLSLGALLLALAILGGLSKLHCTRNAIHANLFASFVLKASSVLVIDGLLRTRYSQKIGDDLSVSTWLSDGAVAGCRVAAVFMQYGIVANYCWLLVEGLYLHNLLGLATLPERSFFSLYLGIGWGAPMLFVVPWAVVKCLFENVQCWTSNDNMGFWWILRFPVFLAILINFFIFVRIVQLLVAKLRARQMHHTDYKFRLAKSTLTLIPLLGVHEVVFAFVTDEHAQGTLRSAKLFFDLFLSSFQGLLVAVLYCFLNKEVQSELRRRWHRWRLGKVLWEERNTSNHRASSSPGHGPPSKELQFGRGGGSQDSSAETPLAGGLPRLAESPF
Method: cAMP content of cells was determined using a kit from Cisbio Corp. (cat. no. 62AM4PEJ) based on HTRF (Homogenous Time Resolved Fluorescence). For preparation, cells were split into T175 culture flasks and grown overnight to near confluency in medium (DMEM/10% FBS). Medium was then removed and cells washed with PBS lacking calcium and magnesium, followed by proteinase treatment with accutase (Sigma-Aldrich cat. no. A6964). Detached cells were washed and resuspended in assay buffer (1×HBSS; 20 mM HEPES, 0.1% BSA, 2 mM IBMX) and cellular density determined. They were then diluted to 400000 cells/ml and 25 μl-aliquots dispensed into the wells of 96-well plates. For measurement, 25 μl of test compound in assay buffer was added to the wells, followed by incubation for 30 minutes at room temperature.
Potencies of peptidic compounds at the GLP-1, glucagon and GIP receptors were determined by exposing cells expressing human glucagon receptor (hGlucagon R), human GIP receptor (hGIP-R) or human GLP-1 receptor (hGLP-1 R) to the listed compounds at increasing concentrations and measuring the formed cAMP as described in Methods.

Structure (SMILES): CCCCCCCCCCCCCCCC(=O)N[C@@H](CCC(=O)N[C@@H](CCC(=O)NCCCC[C@H](NC(=O)[C@H](CC(C)C)NC(=O)[C@H](CCCCN)NC(=O)[C@H](CO)NC(=O)[C@H](CC(C)C)NC(=O)[C@H](CC(=O)O)NC(=O)[C@H](CO)NC(=O)[C@@H](NC(=O)[C@H](Cc1ccccc1)NC(=O)[C@@H](NC(=O)CNC(=O)[C@H](Cc1c[nH]cn1)NC(=O)C(C)(C)NC(=O)[C@@H](N)Cc1c[nH]cn1)[C@@H](C)O)[C@@H](C)O)C(=O)N[C@@H](CCC(=O)O)C(=O)N[C@@H](CCC(=O)O)C(=O)N[C@@H](CCC(N)=O)C(=O)N[C@@H](CCCNC(=N)N)C(=O)N[C@@H](CCC(N)=O)C(=O)N[C@@H](CCCCN)C(=O)N[C@@H](CCC(=O)O)C(=O)N[C@@H](Cc1ccccc1)C(=O)N[C@H](C(=O)N[C@@H](CCC(=O)O)C(=O)N[C@@H](Cc1c[nH]c2ccccc12)C(=O)N[C@@H](CC(C)C)C(=O)N[C@@H](CCCCN)C(=O)N[C@@H](C)C(=O)NCC(=O)NCC(=O)N[C@@H](Cc1c[nH]cn1)C(=O)N1CCC[C@H]1C(=O)N[C@@H](CO)C(=O)NC(C)(C)C(=O)N[C@@H](CCCCN)C(=O)N1CCC[C@H]1C(=O)N1CCC[C@H]1C(=O)N1CCC[C@H]1C(=O)N[C@@H](CCCCN)C(N)=O)[C@@H](C)CC)C(=O)O)C(=O)O [SEQ ID NO: 6, H-Aib-H-G-T-F-T-S-D-L-S-K-L-K[gGlu-gGlu-Palm]-E-E-Q-R-Q-K-E-F-I-E-W-L-K-A-G-G-H-P-S-Aib-K-P-P-P-K-NH2]
- solubility at 1 h [1]: > 9.7 mg/mL
- Delta Rh [nm] = Rh5 − Rh1 [2]: −0.9 nm
- Rh1 [nm] c = 1 mg/ml [2]: 2.5 nm
- Rh5 [nm] c = 5 mg/ml [2]: 1.7 nm

Structure (SMILES): CCCCCCCCCCCCCCCC(=O)N[C@@H](CCC(=O)N[C@@H](CCC(=O)NCCCC[C@H](NC(=O)[C@H](CC(C)C)NC(=O)[C@H](CCCCN)NC(=O)[C@H](CO)NC(=O)[C@H](CC(C)C)NC(=O)[C@H](CC(=O)O)NC(=O)[C@H](CO)NC(=O)[C@@H](NC(=O)[C@H](Cc1ccccc1)NC(=O)[C@@H](NC(=O)CNC(=O)[C@H](Cc1c[nH]cn1)NC(=O)C(C)(C)NC(=O)[C@@H](N)Cc1c[nH]cn1)[C@@H](C)O)[C@@H](C)O)C(=O)N[C@@H](CCC(=O)O)C(=O)N[C@@H](CCC(=O)O)C(=O)N[C@@H](CCC(N)=O)C(=O)N[C@@H](CCCNC(=N)N)C(=O)N[C@@H](CCC(N)=O)C(=O)N[C@@H](CCCCN)C(=O)N[C@@H](CCC(=O)O)C(=O)N[C@@H](Cc1ccccc1)C(=O)N[C@H](C(=O)N[C@@H](CCC(=O)O)C(=O)N[C@@H](Cc1c[nH]c2ccccc12)C(=O)N[C@@H](CC(C)C)C(=O)N[C@@H](CCCCN)C(=O)N[C@@H](C)C(=O)N[C@H](C)C(=O)NCC(=O)N1CCC[C@H]1C(=O)N1CCC[C@H]1C(=O)N[C@@H](CO)C(=O)NC(C)(C)C(=O)N[C@@H](CCCCN)C(=O)N1CCC[C@H]1C(=O)N1CCC[C@H]1C(=O)N1CCC[C@H]1C(=O)N[C@@H](CCCCN)C(N)=O)[C@@H](C)CC)C(=O)O)C(=O)O [SEQ ID NO: 9, H-Aib-H-G-T-F-T-S-D-L-S-K-L-K[gGlu-gGlu-Palm]-E-E-Q-R-Q-K-E-F-I-E-W-L-K-A-dAla-G-P-P-S-Aib-K-P-P-P-K-NH2] (H-H[Aib]HGTFTSDLSKLK([γGlu-γGlu-Palmitoyl])EEQRQKEFIEWLKA[dA]GPPS[Aib]KPPPK-NH2)
- solubility at 1 h [1]: > 9.3 mg/mL
- Delta Rh [nm] = Rh5 − Rh1 [2]: −0.2 nm
- Rh1 [nm] c = 1 mg/ml [2]: 2.8 nm
- Rh5 [nm] c = 5 mg/ml [2]: 2.6 nm

Structure (SMILES): CCCCCCCCCCCCCCCC(=O)N[C@@H](CCC(=O)N[C@@H](CCC(=O)NCCCC[C@H](NC(=O)[C@H](CC(C)C)NC(=O)[C@H](CCCCN)NC(=O)[C@H](CO)NC(=O)[C@H](CC(C)C)NC(=O)[C@H](CC(=O)O)NC(=O)[C@H](CO)NC(=O)[C@@H](NC(=O)[C@H](Cc1ccccc1)NC(=O)[C@@H](NC(=O)CNC(=O)[C@H](Cc1c[nH]cn1)NC(=O)C(C)(C)NC(=O)[C@@H](N)Cc1c[nH]cn1)[C@@H](C)O)[C@@H](C)O)C(=O)N[C@@H](CCC(=O)O)C(=O)N[C@@H](CCC(=O)O)C(=O)N[C@@H](CCC(N)=O)C(=O)N[C@@H](CCCNC(=N)N)C(=O)N[C@@H](CCC(N)=O)C(=O)NC(C)(C)C(=O)N[C@@H](CCC(=O)O)C(=O)N[C@@H](Cc1ccccc1)C(=O)N[C@H](C(=O)N[C@@H](CCC(=O)O)C(=O)N[C@@H](Cc1c[nH]c2ccccc12)C(=O)N[C@@H](CC(C)C)C(=O)N[C@@H](CCCCN)C(=O)N[C@@H](C)C(=O)NCC(=O)NCC(=O)N1CCC[C@H]1C(=O)N1CCC[C@H]1C(=O)N[C@@H](CO)C(=O)NC(C)(C)C(=O)N[C@@H](CCCCN)C(=O)N1CCC[C@H]1C(=O)N1CCC[C@H]1C(=O)N1CCC[C@H]1C(=O)N[C@@H](CCCCN)C(N)=O)[C@@H](C)CC)C(=O)O)C(=O)O [SEQ ID NO: 10, H-Aib-H-G-T-F-T-S-D-L-S-K-L-K[gGlu-gGlu-Palm]-E-E-Q-R-Q-Aib-E-F-I-E-W-L-K-A-G-G-P-P-S-Aib-K-P-P-P-K-NH2]
- solubility at 1 h [1]: > 9.8 mg/mL

Structure (SMILES): CCCCCCCCCCCCCCCC(=O)N[C@@H](CCC(=O)N[C@@H](CCC(=O)NCCCC[C@H](NC(=O)[C@H](CC(C)C)NC(=O)[C@H](CCCCN)NC(=O)[C@H](CO)NC(=O)[C@H](CC(C)C)NC(=O)[C@H](CC(=O)O)NC(=O)[C@H](CO)NC(=O)[C@@H](NC(=O)[C@H](Cc1ccccc1)NC(=O)[C@@H](NC(=O)CNC(=O)[C@H](Cc1c[nH]cn1)NC(=O)C(C)(C)NC(=O)[C@@H](N)Cc1c[nH]cn1)[C@@H](C)O)[C@@H](C)O)C(=O)N[C@@H](CCC(=O)O)C(=O)N[C@@H](CCC(=O)O)C(=O)N[C@@H](CCC(N)=O)C(=O)N[C@@H](CCCNC(=N)N)C(=O)N[C@@H](CCC(N)=O)C(=O)NC(C)(C)C(=O)N[C@@H](CCC(=O)O)C(=O)N[C@@H](Cc1ccccc1)C(=O)N[C@H](C(=O)N[C@@H](CCC(=O)O)C(=O)N[C@@H](Cc1c[nH]c2ccccc12)C(=O)N[C@@H](CC(C)C)C(=O)N[C@@H](CCCCN)C(=O)N[C@@H](C)C(=O)NCC(=O)NCC(=O)N[C@@H](Cc1c[nH]cn1)C(=O)N1CCC[C@H]1C(=O)N[C@@H](CO)C(=O)NC(C)(C)C(=O)N[C@@H](CCCCN)C(=O)N1CCC[C@H]1C(=O)N1CCC[C@H]1C(=O)N1CCC[C@H]1C(=O)N[C@@H](CCCCN)C(N)=O)[C@@H](C)CC)C(=O)O)C(=O)O [SEQ ID NO: 12, H-Aib-H-G-T-F-T-S-D-L-S-K-L-K[gGlu-gGlu-Palm]-E-E-Q-R-Q-Aib-E-F-I-E-W-L-K-A-G-G-H-P-S-Aib-K-P-P-P-K-NH2]
- EC50 (human glucagon receptor): 2 pM
- Delta Rh [nm] = Rh5 − Rh1 [2]: −0.3 nm
- Rh1 [nm] c = 1 mg/ml [2]: 2.9 nm
- Rh5 [nm] c = 5 mg/ml [2]: 2.6 nm
